# Results from ChEMBL document CHEMBL1201862, “PubChem BioAssay data set” (2004).
#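 Cultured in 96-well plates, cells were exposed to test compound for 48 hours across five concentrations. GI50 is the concentration that inhibits growth by half.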 Active and inactive are the calls of the source. No stated cut-off is given here; in the data, active = GI50 up to about 1.1 µM and inactive = higher.
# Columns and labels:
# Test in all cases: inhibition of tumour cell growth, NCI panel, 48 h
# SK-MEL-2 = system: SK-MEL-2
# TK-10 = system: TK-10
# OVCAR-5 = system: OVCAR-5
# NCI-H226 = system: NCI-H226
# BT-549 = system: BT-549
# HT-29 = system: HT-29
# SK-MEL-5 = system: SK-MEL-5
# UACC-257 = system: UACC-257
# T47D = system: T47D
# A498 = system: A498
# HOP-92 = system: HOP-92
# SNB-19 = system: SNB-19
# OVCAR-3 = system: OVCAR-3
# UACC-62 = system: UACC-62
# OVCAR-8 = system: OVCAR-8
# MDA-MB-435 = system: MDA-MB-435
# HOP-62 = system: HOP-62
# Hs-578T = system: Hs-578T
# SF-539 = system: SF-539
# Malme-3M = system: Malme-3M
# UO-31 = system: UO-31
# HL-60 = system: HL-60
# EKVX = system: EKVX
# NCI/ADR-RES = system: NCI/ADR-RES
# COLO 205 = system: COLO 205
# 786-0 = system: 786-0
# ACHN = system: ACHN
# SK-OV-3 = system: SK-OV-3
# SK-MEL-28 = system: SK-MEL-28
# MDA-N = system: MDA-N
# OVCAR-4 = system: OVCAR-4
# MCF7 = system: MCF7
# NCI-H522 = system: NCI-H522
# NCI-H23 = system: NCI-H23
# SF-268 = system: SF-268
# DU-145 = system: DU-145
# RXF 393 = system: RXF 393
# CAKI-1 = system: CAKI-1
# K562 = system: K562
# A549 = system: A549
# MDA-MB-231 = system: MDA-MB-231
# KM12 = system: KM12
# SF-295 = system: SF-295
# CCRF-CEM = system: CCRF-CEM
# HCC 2998 = system: HCC 2998
# SNB-75 = system: SNB-75
# NCI-H460 = system: NCI-H460
# LOX IMVI = system: LOX IMVI
# HCT-116 = system: HCT-116
# PC-3 = system: PC-3
# SN12C = system: SN12C
# MOLT-4 = system: MOLT-4
# HCT-15 = system: HCT-15
# U-251 = system: U-251
# SR = system: SR
# SW-620 = system: SW-620
# M14 = system: M14
# IGROV-1 = system: IGROV-1
# RPMI-8226 = system: RPMI-8226
smiles,measurement,setting,value
Clc1ccc(-c2nnc3sc4nc5ccccc5c-4nn23)c(Cl)c1,GI50,SK-MEL-2,30.6 µM (inactive)
same,GI50,TK-10,55.2 µM (inactive)
same,GI50,OVCAR-5,50.6 µM (inactive)
same,GI50,NCI-H226,64.3 µM (inactive)
same,GI50,BT-549,28.9 µM (inactive)
same,GI50,HT-29,55.7 µM (inactive)
same,GI50,SK-MEL-5,42.8 µM (inactive)
same,GI50,UACC-257,38.5 µM (inactive)
same,GI50,T47D,59.2 µM (inactive)
same,GI50,A498,36.4 µM (inactive)
same,GI50,HOP-92,19.1 µM (inactive)
same,GI50,SNB-19,49.4 µM (inactive)
same,GI50,OVCAR-3,29 µM (inactive)
same,GI50,UACC-62,33.5 µM (inactive)
same,GI50,OVCAR-8,50 µM (inactive)
same,GI50,MDA-MB-435,32.6 µM (inactive)
same,GI50,HOP-62,67 µM (inactive)
same,GI50,Hs-578T,21.7 µM (inactive)
same,GI50,SF-539,50.9 µM (inactive)
same,GI50,Malme-3M,49.4 µM (inactive)
same,GI50,UO-31,62.4 µM (inactive)
same,GI50,HL-60,41.7 µM (inactive)
same,GI50,EKVX,28.8 µM (inactive)
same,GI50,NCI/ADR-RES,34.4 µM (inactive)
same,GI50,COLO 205,56.4 µM (inactive)
same,GI50,786-0,52.6 µM (inactive)
same,GI50,ACHN,82.8 µM (inactive)
same,GI50,SK-OV-3,95.1 µM (inactive)
same,GI50,SK-MEL-28,43.9 µM (inactive)
same,GI50,MDA-N,28.6 µM (inactive)
same,GI50,OVCAR-4,42 µM (inactive)
same,GI50,MCF7,43.3 µM (inactive)
same,GI50,NCI-H522,26.2 µM (inactive)
same,GI50,NCI-H23,29 µM (inactive)
same,GI50,SF-268,33.7 µM (inactive)
same,GI50,DU-145,72.1 µM (inactive)
same,GI50,RXF 393,78.9 µM (inactive)
same,GI50,CAKI-1,34.7 µM (inactive)
same,GI50,K562,31.8 µM (inactive)
same,GI50,A549,41.7 µM (inactive)
same,GI50,MDA-MB-231,99.3 µM (inactive)
same,GI50,KM12,37.5 µM (inactive)
same,GI50,SF-295,36.2 µM (inactive)
same,GI50,CCRF-CEM,36.5 µM (inactive)
same,GI50,HCC 2998,28.7 µM (inactive)
same,GI50,SNB-75,71 µM (inactive)
same,GI50,NCI-H460,41.8 µM (inactive)
same,GI50,LOX IMVI,44 µM (inactive)
same,GI50,HCT-116,40.7 µM (inactive)
same,GI50,PC-3,43.3 µM (inactive)
same,GI50,SN12C,50.6 µM (inactive)
same,GI50,MOLT-4,36.8 µM (inactive)
same,GI50,HCT-15,34.9 µM
same,GI50,U-251,36.6 µM (inactive)
same,GI50,SR,44.9 µM (inactive)
same,GI50,SW-620,46 µM (inactive)
same,GI50,M14,48.3 µM (inactive)
CCc1nc(N)c2nc(-c3cccs3)oc2n1,GI50,SK-MEL-2,> 100 µM (inactive)
same,GI50,TK-10,> 100 µM (inactive)
same,GI50,OVCAR-5,> 100 µM (inactive)
same,GI50,NCI-H226,> 100 µM (inactive)
same,GI50,BT-549,> 100 µM (inactive)
same,GI50,HT-29,> 100 µM (inactive)
same,GI50,SK-MEL-5,> 100 µM (inactive)
same,GI50,UACC-257,> 100 µM (inactive)
same,GI50,T47D,79.8 µM (inactive)
same,GI50,A498,> 10 µM (inactive)
same,GI50,HOP-92,> 100 µM (inactive)
same,GI50,SNB-19,9.25 µM (inactive)
same,GI50,OVCAR-3,> 100 µM (inactive)
same,GI50,UACC-62,> 100 µM (inactive)
same,GI50,OVCAR-8,> 100 µM (inactive)
same,GI50,MDA-MB-435,> 100 µM (inactive)
same,GI50,HOP-62,> 100 µM (inactive)
same,GI50,Hs-578T,45.3 µM (inactive)
same,GI50,SF-539,> 100 µM (inactive)
same,GI50,UO-31,65.6 µM (inactive)
same,GI50,HL-60,> 100 µM (inactive)
same,GI50,EKVX,50.1 µM (inactive)
same,GI50,NCI/ADR-RES,> 100 µM (inactive)
same,GI50,COLO 205,> 100 µM (inactive)
same,GI50,786-0,> 100 µM (inactive)
same,GI50,ACHN,36.4 µM (inactive)
same,GI50,SK-MEL-28,> 100 µM (inactive)
same,GI50,MDA-N,> 100 µM (inactive)
same,GI50,IGROV-1,69.7 µM (inactive)
same,GI50,MCF7,> 100 µM (inactive)
same,GI50,NCI-H522,> 100 µM (inactive)
same,GI50,NCI-H23,> 100 µM (inactive)
same,GI50,SF-268,> 100 µM (inactive)
same,GI50,DU-145,> 100 µM (inactive)
same,GI50,RXF 393,> 100 µM (inactive)
same,GI50,CAKI-1,> 100 µM (inactive)
same,GI50,K562,> 100 µM (inactive)
same,GI50,A549,> 100 µM (inactive)
same,GI50,MDA-MB-231,> 100 µM (inactive)
same,GI50,KM12,> 100 µM (inactive)
same,GI50,SF-295,> 100 µM (inactive)
same,GI50,CCRF-CEM,77.1 µM (inactive)
same,GI50,HCC 2998,> 100 µM (inactive)
same,GI50,SNB-75,71.4 µM (inactive)
same,GI50,NCI-H460,24.3 µM (inactive)
same,GI50,LOX IMVI,87.7 µM (inactive)
same,GI50,HCT-116,> 100 µM (inactive)
same,GI50,PC-3,> 100 µM (inactive)
same,GI50,SN12C,> 100 µM (inactive)
same,GI50,MOLT-4,> 100 µM (inactive)
same,GI50,HCT-15,86.9 µM
same,GI50,U-251,> 100 µM (inactive)
same,GI50,SR,54.8 µM (inactive)
same,GI50,SW-620,> 100 µM (inactive)
same,GI50,M14,> 100 µM (inactive)
same,GI50,RPMI-8226,84.1 µM (inactive)
